{
  "source": "patent US4619943A",
  "about": "“Neolignans of Saururus cernuus L and analogues thereof” (priority 1984, dated 1986)",
  "assay_type_in_all_cases": "in vivo",
  "key": {"[1]": {"test": "Antiamphetamine activity (method of Weissman et al., mice instead of rats)", "conditions": "mice", "procedure": "Neuroleptic drugs are said to bind to postsynaptic dopamine receptors in the brain, thereby blocking dopaminergic transmission. […] Based on this, an assay for possible neuroleptic activity was developed and is commonly used. […] 151, 339 (1966)), except that mice were used instead of rats. A comparison under the same conditions was also made of the antiamphetamine activity of a standard neuroleptic drug, haloperidol, which gave an ED50 value of 0.5 mg/Kg (Table 2)."}, "[2]": {"system": "mosquito larvae (Aedes aegypti)", "test": "Mosquito larvae test", "conditions": "24 hours", "procedure": "Similarly, in a test using mosquito larvae (Aedes aegypti) as the insect test species, SC-7 gave 15% mortality and SC-8 gave 93% mortality at an application rate of 100 ppm. In this test, one ml of a solution of 1000 ppm of the test compound in 10% acetone - 90% water was added to 9 ml of water in a culture tube. Ten mosquito larvae were added, and mortality readings were taken 24 hours later."}, "[3]": {"system": "cabbage looper (Trichoplusia ni [Hubner])", "test": "Insecticidal activity against cabbage looper", "conditions": "both application rates, 1000 and 500 ppm, 14 days", "procedure": "(§1) The present compounds were tested for insecticidal activity against cabbage looper (Trichoplusia ni [Hubner]), and southern armyworm (Spodoptera eridania) at application rates of 1000 and 500 ppm. The tests were conducted in petri dishes containing a solid food source in which the test compounds had been incorporated. The petri dishes containing the treated food source were infested with second instar larvae of southern armyworms or cabbage loopers. Ten larvae per replicate and two replicates per test rate were used. Mortality data were taken 14 days after infestation."}, "Pimephales promelas": {"system": "Pimephales promelas", "test": "Acute toxicity to fish", "conditions": "for % Mortality, Avg / % Mortality, single replicates (1 to 6): 2 hours", "procedure": "Many compounds having insecticidal activity also show toxicity to fish. For example, rotenoids, pyrethrins, and DDT have significant toxicity to fish. For this reason, fish have been used frequently to indicate potential insecticidal activity. The present compounds were tested for acute toxicity to fish by the method described in \"Methods For Acute Toxicity Tests With Fish, Macro-Invertebrates and Amphibians\", EPA 660/3-75-009, Committee on Methods for Toxicity Tests With Aquatic Organisms, Environmental Protection Agency, Corvallis, OR, 1975.\nThe fish, commonly known as Missouri minnows or fat heads (Pimephales promelas, family, cyprinidae) were purchased from a local hatchery and equilibrated to the new surroundings for 24 hours. They were kept in deionized water, previously adjusted to pH 6.5 with phosphate buffer at 23° C. Sufficient oxygen was provided, and the fish were deprived of food during the test period.\nGroups of six fish were placed in containers with different concentrations of the test compound. The percent mortality was recorded every 30 minutes. The LC 50 values (mg/L) and 95% confidence limits were determined from the percent mortality data after 2 hours of exposure from 6 separate replicates using the method of Lichfield and Wiloxon [(J. Pharmacology and Exp. Therepeutics, 96, 99-113 (1949))]."}, "[4]": {"system": "southern armyworm (Spodoptera eridania)", "test": "Insecticidal activity against southern armyworm", "conditions": "both application rates, 1000 and 500 ppm, 14 days", "procedure": "as §1"}, "mice": {"system": "mice", "test": "Neuroleptic / CNS-depressant activity in experimental animals (general statements)"}},
  "note": "Where “and” joins values, the source holds several entries; their conditions need not be identical. Equal values may be shown once.",
  "data": [
    {"smiles": "O=C(CCCN1CCC(O)(c2ccc(Cl)cc2)CC1)c1ccc(F)cc1", "note": "[Haloperidol, haloperidol, reference compound]", "values": [
      {"measurement": "ED50", "setting": "[1]; Mus musculus, inhibition of amphetamine-induced agitation, stereotypy, body-hydration", "result": 0.5, "unit": "mg/kg"},
      {"measurement": "% Inhibition (antiamphetamine activity)", "setting": "[1]; dose 0.05 mg/Kg", "result": 10, "unit": "%"},
      {"measurement": "% Inhibition (antiamphetamine activity)", "setting": "[1]; dose 0.1 mg/Kg", "result": 20, "unit": "%"},
      {"measurement": "% Inhibition (antiamphetamine activity)", "setting": "[1]; dose 0.5 mg/Kg", "result": 40, "unit": "%"},
      {"measurement": "% Inhibition (antiamphetamine activity)", "setting": "[1]; dose 0.75 mg/Kg", "result": 50, "unit": "%"},
      {"measurement": "% Inhibition (antiamphetamine activity)", "setting": "[1]; dose 1.0 mg/Kg", "result": 60, "unit": "%"},
      {"measurement": "% Inhibition (antiamphetamine activity)", "setting": "[1]; dose 1.3 mg/Kg", "result": 70, "unit": "%"},
      {"measurement": "% Inhibition (antiamphetamine activity)", "setting": "[1]; dose 1.8 mg/Kg", "result": 90, "unit": "%"}
    ]},
    {"smiles": "COc1ccc(C(O)C(C)Oc2ccc([C@@H]3O[C@@H](c4ccc(OC(C)C(O)c5ccc6c(c5)OCO6)c(OC)c4)[C@@H](C)[C@@H]3C)cc2OC)cc1OC", "note": "(stereo partly drawn) [SC-7, 2α-[3-methoxy-4-{threo-3-hydroxy-3-(3,4-dimethoxyphenyl)}isopropoxyphenyl]-5β-[3-methoxy-4-{threo-3-hydroxy-3-(3,4-methylenedioxyphenyl)}isopropoxyphenyl]-3α,4β-dimethyltetrahydrofuran]", "values": [
      {"measurement": "mortality at 100 ppm", "setting": "[2]", "result": 15, "unit": "%"},
      {"measurement": "insecticidal activity, cabbage looper", "setting": "[3]", "result": "essentially inactive"},
      {"measurement": "% Mortality, Avg", "setting": "Pimephales promelas; 0.03 mg/L", "result": 6, "unit": "%"},
      {"measurement": "% Mortality, single replicates (1 to 6)", "setting": "Pimephales promelas; 0.03 mg/L, 120 min", "result": "0% (4×) and 17% (2×)"},
      {"measurement": "% Mortality, Avg", "setting": "Pimephales promelas; 0.06 mg/L", "result": 38, "unit": "%"},
      {"measurement": "% Mortality, single replicates (1 to 6)", "setting": "Pimephales promelas; 0.06 mg/L, 120 min", "result": "33% (4×) and 17% (2×)"},
      {"measurement": "% Mortality, Avg", "setting": "Pimephales promelas; 0.09 mg/L", "result": 41, "unit": "%"},
      {"measurement": "% Mortality, single replicates (1 to 6)", "setting": "Pimephales promelas; 0.09 mg/L, 120 min", "result": "50% and 33% (5×)"},
      {"measurement": "% Mortality, Avg", "setting": "Pimephales promelas; 0.13 mg/L", "result": 58, "unit": "%"},
      {"measurement": "% Mortality, single replicates (1 to 6)", "setting": "Pimephales promelas; 0.13 mg/L, 120 min", "result": "83% and 67% and 50% (4×)"},
      {"measurement": "% Mortality, Avg", "setting": "Pimephales promelas; 0.25 mg/L", "result": 86, "unit": "%"},
      {"measurement": "% Mortality, single replicates (1 to 6)", "setting": "Pimephales promelas; 0.25 mg/L, 120 min", "result": "100% (2×) and 83% (3×) and 67%"},
      {"measurement": "% Mortality, Avg", "setting": "Pimephales promelas; 0.5 mg/L", "result": 100, "unit": "%"},
      {"measurement": "% Mortality, single replicates (1 to 6)", "setting": "Pimephales promelas; 0.5 mg/L", "result": 100, "unit": "%"},
      {"measurement": "LC50", "setting": "Pimephales promelas; 2 hours of exposure, pH 6.5, 23° C", "result": 0.115, "unit": "µg/mL"},
      {"measurement": "insecticidal activity, southern armyworm", "setting": "[4]", "result": "essentially inactive"},
      {"measurement": "CNS-depressant activity", "setting": "mice; experimental animals / mice", "result": "activity similar to SC-8"},
      {"measurement": "neuroleptic activity", "setting": "mice; mouse, in vivo", "result": "neuroleptically active"}
    ]}
  ]
}
